# Source: ChEMBL document CHEMBL4152235, “Synthesis, anionophoric activity and apoptosis-inducing bioactivity of benzimidazolyl-based transmembrane anion transporters” (Eur J Med Chem, 2018)
# The source made the active and inactive calls. The calls are words filed in the database; no cut-off is given here.
# Columns and labels:
# [1] = (§1) Ionophoric activity across pyranine dye encapsulated pH 7 egg yolk L-alpha-phosphatidylcholine-based liposomal membranes assessed as chloride ion transport by measuring induction of pH discharge at 1.95 x 10^-3 mol% after 20 mins in presence of NaCl loaded external vesicles by fluorescence method
# [2] = as §1, with “measuring initial rate constant for” for “measuring”, “3.91” for “1.95”, “method (reference value: 5.03 +/- 1.02 10^-3/min)” for “method”
# [3] = Ionophoric activity across lucigenin probe encapsulated pH 7 egg yolk L-alpha-phosphatidylcholine-based large unilamellar vesicles loaded with Na2SO4 assessed as chloride ion efflux at 7.81 x 10^-3mol% after 20 mins in presence of NaCl loaded external vesicles by fluorescence method
# [4] = Binding affinity to chloride ion at 1.5 x 10^-5M using tetra(n-butyl)ammonium chloride measured after 5 mins by spectrophotometric titration method
# A549 [5] = assay: Cytotoxicity against human A549 cells assessed as reduction in cell viability after 48 hrs by MTT assay; format: functional, cell-based; conditions: A549, 48 h
# [6] = Ionophoric activity across pyranine dye encapsulated pH 7 egg yolk L-alpha-phosphatidylcholine-based liposomal membranes assessed as nitrate ion transport by measuring induction of pH discharge at 1.95 x 10^-3 mol% after 20 mins in presence of NaNO3 loaded external vesicles by fluorescence method
# MCF7 [7] = assay: Cytotoxicity against human MCF7 cells assessed as reduction in cell viability after 48 hrs by MTT assay; format: functional, cell-based; conditions: MCF7, 48 h
# MCF7 [8] = assay: Cytotoxicity against human MCF7 cells assessed as reduction in cell viability at 50 uM after 48 hrs by MTT assay relative to control; format: functional; conditions: MCF7, 48 h
# [9] = Ionophoric activity across pyranine dye encapsulated pH 7 egg yolk L-alpha-phosphatidylcholine-based liposomal membranes assessed as iodide ion transport by measuring induction of pH discharge at 1.95 x 10^-3 mol% after 20 mins in presence of NaI loaded external vesicles by fluorescence method
# MCF7 [10] = assay: Ionophoric activity across human MCF7 cells assessed as chloride ion efflux up to 10 uM after 2 hrs by MQAE dye based fluorescence assay; format: cell-based
# [11] = Ionophoric activity across pyranine dye encapsulated pH 7 egg yolk L-alpha-phosphatidylcholine-based liposomal membranes assessed as chloride ion transport by measuring induction of pH discharge after 20 mins in presence of NaCl loaded external vesicles by fluorescence method
# HeLa [12] = assay: Ionophoric activity across human HeLa cells assessed as chloride ion efflux up to 10 uM after 2 hrs by MQAE dye based fluorescence assay; format: cell-based
# [13] = Ionophoric activity across pyranine dye encapsulated pH 7 egg yolk L-alpha-phosphatidylcholine-based liposomal membranes assessed as bromide ion transport by measuring induction of pH discharge at 1.95 x 10^-3 mol% after 20 mins in presence of NaBr loaded external vesicles by fluorescence method
# [14] = as §1, with “measuring initial rate constant for” for “measuring”, “7.81” for “1.95”, “method (reference value: 5.03 +/- 1.02 10^-3/min)” for “method”
# [15] = as §1, with “measuring initial rate constant for” for “measuring”, “9.77” for “1.95”, “10^-4” for “10^-3”, “method (reference value: 5.03 +/- 1.02 10^-3/min)” for “method”
# [16] = Ionophoric activity across pyranine dye encapsulated pH 7 egg yolk L-alpha-phosphatidylcholine-based liposomal membranes assessed as chloride ion transport by measuring induction of pH discharge at 1.95 x 10^-3 mol% after 20 mins in presence of KCl loaded external vesicles by fluorescence method
# HeLa [17] = assay: Cytotoxicity against human HeLa cells assessed as reduction in cell viability up to 10 uM after 12 hrs in absence of chloride by MTT assay; format: functional, cell-based
# [18] = Ionophoric activity across pyranine dye encapsulated pH 7 POPC-cholesterol-based liposomal membranes assessed as chloride ion transport by measuring induction of pH discharge at 7.81 x 10^-3mol% after 20 mins in presence of NaCl loaded external vesicles by fluorescence method
# HepG2 [19] = assay: Cytotoxicity against human HepG2 cells assessed as reduction in cell viability at 50 uM after 48 hrs by MTT assay relative to control; format: functional; conditions: HepG2, 48 h
# HeLa [20] = assay: Cytotoxicity against human HeLa cells assessed as reduction in cell viability up to 10 uM after 12 hrs in presence of chloride by MTT assay; format: functional, cell-based
# L02 = assay: Cytotoxicity against human LO2 cells assessed as reduction in cell viability after 48 hrs by MTT assay; format: cell-based; conditions: L02, 48 h
# HeLa [21] = assay: Induction of apoptosis in human HeLa cells assessed as formation of apoptotic bodies at 2.5 uM after 24 hrs by Hoechst 33342 staining based fluorescence microscopic analysis; format: functional, cell-based
# HeLa [22] = assay: Disruption of mitochondrial membrane potential in human HeLa cells assessed as decrease in ratio of red to green fluorescence at 5 to 10 uM after 24 hrs by JC1 staining based fluorescence microscopic analysis; format: functional, cell-based
# A549 [23] = assay: Cytotoxicity against human A549 cells assessed as reduction in cell viability at 50 uM after 48 hrs by MTT assay relative to control; format: functional; conditions: A549, 48 h
# [24] = Binding affinity to chloride ion assessed as 1:1 compound-Cl- complex formation at 4.1 mM using tetra(n-butyl)ammonium chloride by ESI MS spectrometric method
# [25] = Ionophoric activity across pyranine dye encapsulated pH 7 egg yolk L-alpha-phosphatidylcholine-based liposomal membranes assessed as chloride ion transport by measuring induction of pH discharge after 20 mins in presence of NaCl loaded external vesicles by fluorescence method relative to m-Bimbe
# HeLa [26] = assay: Induction of apoptosis in human HeLa cells assessed as formation of bean shaped nuclei at 2.5 uM after 24 hrs by Hoechst 33342 staining based fluorescence microscopic analysis; format: functional, cell-based
# HeLa [27] = assay: Induction of apoptosis in human HeLa cells assessed as chromatin fragmentation at 2.5 uM after 24 hrs by Hoechst 33342 staining based fluorescence microscopic analysis; format: functional, cell-based
# [28] = Ionophoric activity across pyranine dye encapsulated pH 7 egg yolk L-alpha-phosphatidylcholine-based liposomal membranes assessed as chloride ion transport by measuring induction of pH discharge at 1.95 x 10^-3 mol% after 20 mins in presence of RbCl loaded external vesicles by fluorescence method
# HeLa [29] = assay: Induction of apoptosis in human HeLa cells assessed as chromatin condensation at 2.5 uM after 24 hrs by Hoechst 33342 staining based fluorescence microscopic analysis; format: functional, cell-based
# [30] = as §1, with “measuring initial rate constant for” for “measuring”, “4.88” for “1.95”, “10^-4” for “10^-3”, “method (reference value: 5.03 +/- 1.02 10^-3/min)” for “method”
# [31] = Ionophoric activity across lucigenin probe encapsulated pH 7 egg yolk L-alpha-phosphatidylcholine-based large unilamellar vesicles loaded with Na2SO4 assessed as chloride ion efflux at 7.81 x 10^-3mol% after 20 mins in presence of NaCl/Na2SO4 loaded external vesicles by fluorescence method
# HeLa [32] = assay: Cytotoxicity against human HeLa cells assessed as reduction in cell viability at 50 uM after 48 hrs by MTT assay relative to control; format: functional
# [33] = Ionophoric activity across pyranine dye encapsulated pH 7 egg yolk L-alpha-phosphatidylcholine-based liposomal membranes assessed as chloride ion transport by measuring induction of pH discharge at 1.95 x 10^-3 mol% after 20 mins in presence of CsCl loaded external vesicles by fluorescence method
# HeLa [34] = assay: Cytotoxicity against human HeLa cells assessed as reduction in cell viability after 48 hrs by MTT assay; format: functional, cell-based
# [35] = as §1, with “measuring initial rate constant for” for “measuring”, “method (reference value: 5.03 +/- 1.02 10^-3/min)” for “method”
# HepG2 [36] = assay: Cytotoxicity against human HepG2 cells assessed as reduction in cell viability after 48 hrs by MTT assay; format: functional, cell-based; conditions: HepG2, 48 h
# [37] = Ionophoric activity across pyranine dye encapsulated pH 7 egg yolk L-alpha-phosphatidylcholine-based liposomal membranes assessed as chloride ion transport by measuring induction of pH discharge at 1.95 x 10^-3 mol% after 20 mins in presence of LiCl loaded external vesicles by fluorescence method
# MCF7 [38] = assay: Cytotoxicity against human MCF7 cells assessed as reduction in cell viability up to 10 uM after 12 hrs in absence of chloride by MTT assay; format: functional, cell-based
# HeLa [39] = assay: Ionophoric activity across human HeLa cells assessed as chloride ion efflux at 10 uM after 3 hrs by acridine orange staining based fluorescence microscopic analysis; format: cell-based
# MCF7 [40] = assay: Cytotoxicity against human MCF7 cells assessed as reduction in cell viability up to 10 uM after 12 hrs in presence of chloride by MTT assay; format: functional, cell-based
smiles,measurement,setting,value
O=[N+]([O-])c1cc(-c2nc3ccc(C(F)(F)F)cc3[nH]2)cc(-c2nc3ccc(C(F)(F)F)cc3[nH]2)c1,Activity,[1],Active
same,K,[2],1.33 ×10⁻¹ /min
same,Activity,[3],inactive
same,Ka,[4],7.53 ×10³ /M
same,IC50,A549 [5],3.8 to 3.9 µM
same,Activity,[6],inactive
same,IC50,MCF7 [7],9.4 to 9.7 µM
same,inhibition at 50 µM,MCF7 [8],99.2%
same,Activity,[9],inactive
same,Activity,MCF7 [10],Active
same,EC50,[11],3.76 ×10⁻³ mol%
same,EC50,[11]; read-out: EC50,0.05 µM
same,Activity,HeLa [12],Active
same,Activity,[13],inactive
same,K,[14],1.87 ×10⁻¹ /min
same,K,[15],4.08 ×10⁻² /min
same,Activity,[16],Active
same,Activity,HeLa [17],Active
same,Activity,[18],inactive
same,inhibition at 50 µM,HepG2 [19],101%
same,Activity,HeLa [20],Active
same,IC50,L02,3.7 µM
same,Activity,HeLa [21],Active
same,Activity,HeLa [22],Active
same,inhibition at 50 µM,A549 [23],100%
same,Activity,[24],Active
same,fold change (FC),[25],1720
same,Activity,HeLa [26],Active
same,Activity,HeLa [27],Active
same,Activity,[28],Active
same,Activity,HeLa [29],Active
same,K,[30],2.11 ×10⁻² /min
same,Activity,[31],inactive
same,inhibition at 50 µM,HeLa [32],94.9%
same,Activity,[33],Active
same,IC50,HeLa [34],1.9 µM
same,K,[35],8.14 ×10⁻² /min
same,IC50,HepG2 [36],4.1 µM
same,Activity,[37],Active
same,Activity,MCF7 [38],Active
same,Activity,HeLa [39],Active
same,Activity,MCF7 [40],Active
